Experimental data taken from patent US20230322769A1, “HETEROAROMATIC RING COMPOUND AS RET KINASE INHIBITOR, AND PREPARATION AND USE THEREOF” (JIANGSU CHIA TAI FENGHAI PHARMACEUTICAL CO., LTD., priority 2020, published 2023).

Columns and labels:
[1] = target: RET wild type (RET WT) (Homo sapiens (Human), UniProt P07949); experiment: HTRF kinase activity assay, RET wild type; assay type: biochemical; details: 1 μM ATP
[2] = target: FGFR3 V555M (Homo sapiens (Human), UniProt P22607, V555M); experiment: HTRF kinase activity assay, FGFR3 V555M; assay type: biochemical
Description: (§1) Activity Experiment 8: Inhibition of FGFR Family Kinases' Activity by Prepared Compounds The compounds were assayed for activity IC50 against the FGFR family kinases. Related kinases were purchased from Carna and Signalchem.
(§2) The activity assay method for the related kinases was established by homogeneous time-resolved fluorescence (HTRF), and the inhibitory activity of the compounds was determined. A 5 μL reaction mixture was prepared, comprising 1× enzymatic buffer (Cisbio, HTRF KinEASE™-TK), 5 mM MgCl2, 1 mM DTT, 1 μM TK substrate-biotin (Cisbio, HTRF KinEASE™-TK), corresponding concentrations of ATP and related kinases, and gradient concentrations of compounds.
(§3) The kinases and compounds were pre-incubated for 10 min, and then ATP and substrate were added to start the reaction. All the enzyme-catalyzed reactions were carried out at 25° C. for 40 min. After the enzyme-catalyzed reactions were completed, 5 μL of TK antibody-cryptate and streptavidin-XL665 (the reaction concentration of streptavidin-XL665 was 62.5 nM) were added to the reaction mixtures, and the mixtures were incubated at 25° C. for another 60 min.

[3] = target: KDR (VEGFR2) (Homo sapiens (Human), UniProt P35968); experiment: HTRF kinase activity assay, KDR; assay type: biochemical; details: 20 μM ATP
[4] = test system: Ba/F3 KIF5B-RET-G810R cells; experiment: Ba/F3 KIF5B-RET-G810R cell inhibition (CellTiter-Glo); assay type: cell-based; details: Mus musculus, BaF3, 72 h, maximum concentration 1000 nM
Description: (§4) Activity Experiment 3: Inhibition of Ba/F3 KIF5B-RET Cells by Prepared Compounds Ba/F3 KIF5B-RET, Ba/F3KIF5B-RET-V804M, Ba/F3 RET-M918T and Ba/F3 KIF5B-RET-G810R cells growing in log phase were harvested and counted using a […]. The cell viability was determined by the trypan blue exclusion method, and the cell viability was kept over 90%. The cell concentration was adjusted, and 90 μL of the cell suspension was added to a 96-well plate. The cells in the 96-well plate were incubated overnight at 37° C. with 5% CO2 and 95% humidity. Corresponding gradient concentrations of drug solutions (the maximum concentration was 1000 nM) were added to the 96-well plate inoculated with cells at 10 μL/well. Triplicate wells were set per drug concentration, and the final concentration of DMSO was 0.1%. The drug-treated cells in the 96-well plate were incubated for another 72 h at 37° C. with 5% CO2 and 95% humidity. After the drug treatment was completed, 100 μL of CellTiter-Glo reagent was added to each well. The cell plate was shaken on an orbital shaker for 5 min to lyse the cells and then let stand at room temperature for 20 min to stabilize the luminescence signals, and then the luminescence values were read. The data were analyzed using the GraphPad Prism 5.0 software. Dose-response curves were fit to the data using nonlinear S-curve regression, and IC50 was calculated from the curves.

[5] = target: FGFR4 (Homo sapiens (Human), UniProt P22455); experiment: HTRF kinase activity assay, FGFR4; assay type: biochemical
Description: as §1, §2, §3

[6] = target: FGFR2 V564I (Homo sapiens (Human), UniProt P21802, V564I); experiment: HTRF kinase activity assay, FGFR2 V564I; assay type: biochemical
Description: (§5) Activity Experiment 8: Inhibition of FGFR Family Kinases' Activity by Prepared Compounds The compounds were assayed for activity IC50 against the FGFR family kinases. Related kinases were purchased from Carna and Signalchem. The activity assay method for the related kinases was established by homogeneous time-resolved fluorescence (HTRF), and the inhibitory activity of the compounds was determined. […] The kinases and compounds were pre-incubated for 10 min, and then ATP and substrate were added to start the reaction. All the enzyme-catalyzed reactions were carried out at 25° C. for 40 min. After the enzyme-catalyzed reactions were completed, 5 μL of TK antibody-cryptate and streptavidin-XL665 (the reaction concentration of streptavidin-XL665 was 62.5 nM) were added to the reaction mixtures, and the mixtures were incubated at 25° C. for another 60 min.

[7] = target: FGFR2 K641R (Homo sapiens (Human), UniProt P21802, K641R); experiment: HTRF kinase activity assay, FGFR2 K641R; assay type: biochemical
Description: as §5

[8] = test system: Ba/F3 KIF5B-RET-V804M cells; experiment: Ba/F3 KIF5B-RET-V804M cell inhibition (CellTiter-Glo); assay type: cell-based; details: Mus musculus, BaF3, 72 h
Description: as §4

[9] = target: hERG potassium channel (Homo sapiens (Human), UniProt Q12809); experiment: Inhibition of hERG potassium channel, whole-cell patch clamp in HEK293 cells; details: read-out: IC50 for inhibition of hERG potassium channel; HEK293 cells stably expressing hERG, patch clamp
Chain of hERG potassium channel (Q12809 whole entry): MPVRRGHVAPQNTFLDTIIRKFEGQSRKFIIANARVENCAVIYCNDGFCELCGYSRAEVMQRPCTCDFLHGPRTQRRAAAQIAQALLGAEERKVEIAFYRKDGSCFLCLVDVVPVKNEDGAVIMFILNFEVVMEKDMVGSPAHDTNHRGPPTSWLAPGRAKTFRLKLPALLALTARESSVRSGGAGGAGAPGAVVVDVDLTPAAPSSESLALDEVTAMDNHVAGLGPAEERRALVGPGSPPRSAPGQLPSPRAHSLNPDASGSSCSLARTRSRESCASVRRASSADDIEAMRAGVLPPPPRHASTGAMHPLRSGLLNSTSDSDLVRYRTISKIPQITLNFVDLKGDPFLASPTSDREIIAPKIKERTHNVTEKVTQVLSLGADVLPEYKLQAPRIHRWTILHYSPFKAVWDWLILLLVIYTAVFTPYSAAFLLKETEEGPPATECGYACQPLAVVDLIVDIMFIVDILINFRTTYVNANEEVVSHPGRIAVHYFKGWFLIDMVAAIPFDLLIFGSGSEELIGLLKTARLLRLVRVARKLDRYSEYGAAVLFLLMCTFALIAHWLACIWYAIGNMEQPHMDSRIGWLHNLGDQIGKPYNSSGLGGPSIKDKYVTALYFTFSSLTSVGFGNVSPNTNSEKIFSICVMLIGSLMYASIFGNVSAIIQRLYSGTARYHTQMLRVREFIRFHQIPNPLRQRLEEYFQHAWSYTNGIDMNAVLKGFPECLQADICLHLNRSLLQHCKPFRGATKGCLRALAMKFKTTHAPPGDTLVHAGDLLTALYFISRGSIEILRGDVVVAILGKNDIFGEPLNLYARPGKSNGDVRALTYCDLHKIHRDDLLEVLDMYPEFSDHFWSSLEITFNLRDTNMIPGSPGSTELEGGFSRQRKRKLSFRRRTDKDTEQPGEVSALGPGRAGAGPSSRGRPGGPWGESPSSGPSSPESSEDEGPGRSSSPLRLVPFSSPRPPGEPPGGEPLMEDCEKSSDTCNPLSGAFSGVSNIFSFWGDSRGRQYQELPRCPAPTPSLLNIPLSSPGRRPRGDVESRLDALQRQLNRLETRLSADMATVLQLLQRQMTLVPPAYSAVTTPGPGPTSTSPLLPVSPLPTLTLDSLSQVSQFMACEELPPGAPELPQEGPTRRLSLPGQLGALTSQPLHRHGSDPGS

Chain of FGFR4 (P22455 22-802): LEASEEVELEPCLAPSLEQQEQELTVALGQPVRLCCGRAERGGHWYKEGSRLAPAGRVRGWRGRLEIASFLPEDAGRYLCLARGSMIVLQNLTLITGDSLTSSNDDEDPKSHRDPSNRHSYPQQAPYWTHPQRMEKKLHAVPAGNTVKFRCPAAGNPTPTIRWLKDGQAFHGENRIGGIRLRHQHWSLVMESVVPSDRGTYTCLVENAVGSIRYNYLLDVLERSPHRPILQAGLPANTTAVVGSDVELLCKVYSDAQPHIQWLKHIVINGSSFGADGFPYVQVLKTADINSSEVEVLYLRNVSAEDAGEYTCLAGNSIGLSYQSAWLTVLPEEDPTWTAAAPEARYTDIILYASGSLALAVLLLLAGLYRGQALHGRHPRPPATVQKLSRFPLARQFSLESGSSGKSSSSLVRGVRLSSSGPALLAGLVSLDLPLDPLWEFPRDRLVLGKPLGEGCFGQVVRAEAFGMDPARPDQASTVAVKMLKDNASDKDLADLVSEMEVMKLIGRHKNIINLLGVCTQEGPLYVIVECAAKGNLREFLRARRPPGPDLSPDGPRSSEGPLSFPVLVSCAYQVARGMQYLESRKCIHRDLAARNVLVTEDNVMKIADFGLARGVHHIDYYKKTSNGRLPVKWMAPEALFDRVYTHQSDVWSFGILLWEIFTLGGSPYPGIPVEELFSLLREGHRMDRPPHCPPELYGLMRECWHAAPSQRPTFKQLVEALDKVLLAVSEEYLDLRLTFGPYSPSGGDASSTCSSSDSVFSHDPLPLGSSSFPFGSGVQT
Chain of FGFR2 V564I (P21802 22-821 V564I): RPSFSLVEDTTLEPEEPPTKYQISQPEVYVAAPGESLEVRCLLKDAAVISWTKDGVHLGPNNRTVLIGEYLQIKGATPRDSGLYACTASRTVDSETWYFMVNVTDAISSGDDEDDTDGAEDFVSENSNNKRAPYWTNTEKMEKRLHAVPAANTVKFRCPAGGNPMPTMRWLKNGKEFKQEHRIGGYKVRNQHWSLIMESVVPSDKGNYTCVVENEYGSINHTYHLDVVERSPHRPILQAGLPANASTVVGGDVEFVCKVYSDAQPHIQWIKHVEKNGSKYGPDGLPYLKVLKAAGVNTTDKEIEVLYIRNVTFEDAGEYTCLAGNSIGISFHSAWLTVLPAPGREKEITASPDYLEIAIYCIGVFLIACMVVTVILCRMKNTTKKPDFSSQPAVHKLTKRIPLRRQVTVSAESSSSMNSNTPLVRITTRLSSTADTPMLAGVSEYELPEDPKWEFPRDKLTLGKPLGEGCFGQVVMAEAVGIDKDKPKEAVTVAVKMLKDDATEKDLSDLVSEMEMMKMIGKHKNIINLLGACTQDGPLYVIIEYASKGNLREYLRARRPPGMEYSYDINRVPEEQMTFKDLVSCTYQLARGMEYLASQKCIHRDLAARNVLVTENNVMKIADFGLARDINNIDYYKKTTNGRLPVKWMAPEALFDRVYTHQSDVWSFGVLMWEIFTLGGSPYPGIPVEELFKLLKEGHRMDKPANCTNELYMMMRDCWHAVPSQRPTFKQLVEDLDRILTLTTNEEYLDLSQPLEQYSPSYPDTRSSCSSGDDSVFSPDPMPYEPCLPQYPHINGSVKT
Chain of FGFR3 V555M (P22607 23-806 V555M): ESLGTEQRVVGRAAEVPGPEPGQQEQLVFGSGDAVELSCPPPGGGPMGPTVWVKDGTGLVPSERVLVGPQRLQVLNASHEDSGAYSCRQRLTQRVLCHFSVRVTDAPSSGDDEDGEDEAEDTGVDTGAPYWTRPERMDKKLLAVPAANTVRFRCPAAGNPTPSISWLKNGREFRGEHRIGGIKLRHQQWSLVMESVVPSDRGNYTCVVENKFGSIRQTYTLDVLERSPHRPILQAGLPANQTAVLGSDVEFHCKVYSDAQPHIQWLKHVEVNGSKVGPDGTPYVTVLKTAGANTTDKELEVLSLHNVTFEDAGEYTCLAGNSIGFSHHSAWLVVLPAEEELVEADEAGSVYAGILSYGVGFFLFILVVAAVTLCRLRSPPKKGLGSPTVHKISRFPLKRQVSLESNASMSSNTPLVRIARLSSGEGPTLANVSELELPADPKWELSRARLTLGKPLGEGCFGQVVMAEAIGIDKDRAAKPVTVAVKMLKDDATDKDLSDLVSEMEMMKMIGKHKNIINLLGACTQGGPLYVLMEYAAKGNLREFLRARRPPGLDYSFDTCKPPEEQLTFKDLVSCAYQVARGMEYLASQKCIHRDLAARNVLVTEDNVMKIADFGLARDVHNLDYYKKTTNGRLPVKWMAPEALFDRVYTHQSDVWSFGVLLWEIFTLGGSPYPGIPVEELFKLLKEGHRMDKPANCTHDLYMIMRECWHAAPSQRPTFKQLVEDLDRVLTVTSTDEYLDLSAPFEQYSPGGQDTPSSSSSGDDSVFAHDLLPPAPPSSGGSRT
Chain of FGFR2 K641R (P21802 22-821 K641R): as the sequence (P21802 22-821 V564I) above, with I543V, K620R counted along it
Chain of KDR (VEGFR2) (P35968 20-1356): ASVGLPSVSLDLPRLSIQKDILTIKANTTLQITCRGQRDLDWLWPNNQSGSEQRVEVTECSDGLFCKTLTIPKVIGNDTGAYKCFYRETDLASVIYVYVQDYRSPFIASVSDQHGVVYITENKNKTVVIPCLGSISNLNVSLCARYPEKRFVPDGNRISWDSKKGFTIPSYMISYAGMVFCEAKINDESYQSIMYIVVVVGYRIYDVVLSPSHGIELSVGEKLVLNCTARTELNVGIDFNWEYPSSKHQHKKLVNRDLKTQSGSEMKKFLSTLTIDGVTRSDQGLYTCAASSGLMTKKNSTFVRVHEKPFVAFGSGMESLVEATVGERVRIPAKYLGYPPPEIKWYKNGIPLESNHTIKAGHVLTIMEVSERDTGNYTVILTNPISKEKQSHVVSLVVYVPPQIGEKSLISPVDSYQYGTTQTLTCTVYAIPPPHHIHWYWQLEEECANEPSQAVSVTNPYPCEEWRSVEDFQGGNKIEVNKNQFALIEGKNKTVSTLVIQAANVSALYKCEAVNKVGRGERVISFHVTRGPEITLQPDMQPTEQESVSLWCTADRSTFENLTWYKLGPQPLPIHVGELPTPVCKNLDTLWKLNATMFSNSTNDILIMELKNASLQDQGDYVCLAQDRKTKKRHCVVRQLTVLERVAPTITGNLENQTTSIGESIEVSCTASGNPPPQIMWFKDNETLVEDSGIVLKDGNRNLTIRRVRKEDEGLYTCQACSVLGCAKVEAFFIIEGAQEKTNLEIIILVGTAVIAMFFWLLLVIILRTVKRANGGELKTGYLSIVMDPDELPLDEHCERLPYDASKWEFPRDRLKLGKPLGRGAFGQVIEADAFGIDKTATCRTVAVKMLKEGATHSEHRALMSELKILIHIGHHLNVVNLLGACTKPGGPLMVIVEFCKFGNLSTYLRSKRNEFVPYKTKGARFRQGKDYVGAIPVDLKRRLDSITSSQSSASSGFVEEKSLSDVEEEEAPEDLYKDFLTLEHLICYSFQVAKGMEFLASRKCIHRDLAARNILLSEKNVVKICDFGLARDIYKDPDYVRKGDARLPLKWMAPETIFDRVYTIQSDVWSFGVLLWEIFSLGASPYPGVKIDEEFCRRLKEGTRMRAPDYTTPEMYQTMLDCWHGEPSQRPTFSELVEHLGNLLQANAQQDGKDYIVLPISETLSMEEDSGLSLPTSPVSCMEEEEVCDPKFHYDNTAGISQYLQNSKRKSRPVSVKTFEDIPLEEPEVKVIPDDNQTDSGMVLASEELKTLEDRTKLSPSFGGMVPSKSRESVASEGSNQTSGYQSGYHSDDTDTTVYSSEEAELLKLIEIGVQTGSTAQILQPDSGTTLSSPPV

Row | Structure (SMILES) | IC50 [1] [nM] | IC50 [2] [nM] | IC50 [3] [nM] | IC50 [4] [nM] | IC50 [5] [nM] | IC50 [6] [nM] | IC50 [7] [nM] | IC50 [8] [nM] | IC50 [9] [nM]
1 | [2H]C([2H])([2H])N1CCN(c2cc(-c3ccc(N4CC5CC(C4)N5Cc4ccc(OC)nc4)nc3)c3c(C#N)cnn3c2)CC1 [Compound 94] | 4.62 | 74.3 | 169 | 464 | 595 | 45.6 | 7.39 | 99 | 
2 | COc1ccc(CN2C3CC2CN(c2ccc(-c4cc(OCC(C)(C)O)cn5ncc(C#N)c45)cn2)C3)cn1 [Selpercatinib, selpercatinib, reference compound] |  | 188 |  | > 1000 | 475 | 97.6 | 11.2 | 38.4 | 2750
